Assay [1] concerns Caki-1 cells (human clear cell renal cell carcinoma cells). As to the kind of experiment: MTT cell viability / IC50 assay, Caki-1. Format: cell-based. The protocol:
Cell culture: In the following examples, unless otherwise specified, all cell lines are purchased from American Type Culture Collection and cultured in American Type Culture Collection (ATCC)-recommended media, with fetal bovine serum (FBS) to a final concentration of 10% and 1× penicillin/streptomycin at 37° C. with 5% CO2 in a cell culture incubator, unless otherwise specified. Unless otherwise specified, culture is 2D. Where culture is 3D, low attachment plates are used, with the same media. C4-2B (ATCC® CRL-3315™, human prostate cancer cells of epithelial morphology) parental cell line and drug-resistant cells derived therefrom) are cultured in RPMI-1640 with 10% FBS. MDVR cells (an Enzalutamide-resistant variety of C4-2B prostate cancer cells formed as described below) are cultured as indicated for the parental C4-2B cells. Caki-1 cells (human clear cell renal cell carcinoma cells) are cultured in ATCC-formulated McCoy's 5a Medium Modified (ATCC Catalog No. 30-2007) with 10% FBS. PC3 cells (ATCC® CRL-1435™, a human prostate cancer cell line of epithelial morphology initiated from a bone metastasis of a grade IV prostatic adenocarcinoma) are cultured in F-12K with 10% FBS. 22RV1 Prostate Cancer (PC) cells (ATCC® CRL-2505™, a human prostate carcinoma cell line of epithelial morphology) are cultured in RPMI-1640 with 10% FBS. DU145 cells (ATCC® HTB-81™, a human cell line derived from a prostate-originating brain metastase, not detectably hormone sensitive, not expressing prostate antigen; forms adenocarcinoma grade II in nude mice) are cultured in ATCC-formulated Eagle's Minimum Essential Medium (EMEM, Catalog No. 30-2003). H446 cells (ATCC® HTB-171™, a human small cell carcinoma SC lung cancer (SCLC) cell line derived from a metastatic site) are cultured in RPMI-1640 with 10% FBS. H358 cells (ATCC® CRL-5807™, a human non-small cell lung cancer (NSCLC) cell line that expresses protein and RNA of SP-A, the major lung surfactant associated protein, and produces tumors in athymic nude mice) are cultured in RPMI-1640 Medium with 10% FBS. BxPC3 cells (ATCC® CRL-1687™, an adenocarcinoma-derived pancreatic cancer cell line that expresses pancreas cancer specific antigen and carcinoembryonic antigen and forms tumors in nude mice) are cultured in RPMI-1640 with 10% FBS.
Example 1: A cell assay is performed exposing cells cultured as described above to various drugs indicated below for 24 hours unless otherwise indicated. Each of the cell lines is treated either with a THAD (e.g. DZ-DHA-ether, MI-148-bis-DHA), or for comparison, with the DHA mono-ester “DZ-DHA”; alternatively/additionally, DZ1 and/or unconjugated DHA may serve as comparants. For each cell line, the IC50 is determined for each drug in concentrations from 0 to 100 μM. […] In the controls (not shown in the figures), the cells are exposed to DMSO (vehicle) for a final concentration that equals the highest concentration of the drug tested, to a maximum concentration less than 0.1% v/v. 4 hours before culture end/SDS addition, 10 μL MTT (3-(4,5-Dimethyl-2-thiazolyl)-2,5-diphenyl-2H-tetrazolium bromide, Sigma-Aldrich) is added to wells containing the cells. At the end of culture, 100 μl 10% SDS is added and then the plate containing the cells is placed in a 37° C. cell culture incubator for 8 hours. The absorbance density of the supernatant is read on a 96-well microplate reader at wavelength 595 nm. The results of Caki-1 and MDRV are indicated in the table below along with preliminary results for further cancer cell lines (including, e.g., C4-2B, Abi-R, PC3, 22Rv1, DU145, H358, H446, BxPC3), and the corresponding curves are shown in FIG. 2A (Caki-1) and FIG. 2B (MDVR).

A further assay has as its system C4-2 MDVR cells. Put plainly: JC-1 staining, mitochondrial membrane potential by flow cytometry. Format: cell-based, human. The settings on record: 5 uM, 16 h. The protocol:
Example 5D: JC-1 staining and measuring JC-1 fluorescence is performed by flow cytometry to detect the ratio of green and red fluorescence. C4-2 MDVR cells are treated with vehicle (negative control), DHA (5 uM), and DZ-003 (5 uM) for 16 h, followed by JC-1 staining (2 uM) at 37° C. for 30 min, to determine the mitochondrial membrane potential by flow cytometry where JC-1 remains as a monomer in the cytosol that emits green fluorescence as an indication of depolarized membrane potential, and JC-1 forms aggregates in intact mitochondria that emits red fluorescence. […] Preliminary experiments indicate that the THAD as described herein may provide a similar or increased effect.
Background: A flow cytometer gives signals particle by particle.

Read-outs that look alike come from different tables or passages of the source.

For orientation: IC50 means the concentration at which inhibition is half-maximal. For the compound `C[C@@H]1CC[C@H]2[C@@H](C)C(OC(=O)CCCCCN3/C(=C/C=C4\CCCC(/C=C/C5=[N+](CCCCS(=O)(=O)[O-])c6ccccc6C5(C)C)=C4Cl)C(C)(C)c4ccccc43)O[C@@H]3OC4(C)CC[C@@H]1[C@]32OO4` (stereo in doubt) [DZ3a], the 50% inhibitory concentration (IC50) in assay [1] (Caki-1, 24 hours, relative IC50, read-out: IC50) was 12.3 µM; in assay [1] (Caki-1, unit inferred, read-out: IC50 (FIG. 2A description)), above 12 µM. The “mitochondrial membrane potential (JC-1 fluorescence)” value with C4-2 MDVR cells is reported as “induces depolarization of mitochondrial membrane potential”.

(Values after US20230226198A1, “Artemisinin Derivatives” (DA ZEN THERANOSTICS, INC., priority 2019, published 2023).)
